Measured values taken from patent CN103330941A, “一种紫杉醇注射剂的药物组合物” (Individual, priority 2013, dated 2013).

What was measured:
[1] = Experiment 2, formulation screening: dissolution of paclitaxel; type: physicochemical
[2] = cited from earlier work
[3] = in the human body; cited from earlier work

| SMILES | solubilizing (hydrotropic) effect on paclitaxel ([1]; alone) | solubilizing (hydrotropic) effect on paclitaxel ([1]; used together with 1,2-propanediol) | solubility in organic solvents (in words) ([2]; methanol, ethanol or chloroform) | solubility in water (in words) ([2]; water) | effective bioavailability [3] |
| --- | --- | --- | --- | --- | --- |
| CC(=O)Oc1ccccc1C(=O)[O-].[Na+] [乙酰水杨酸钠] | 具有助溶作用 | 具有增加的助溶作用 | – | – | – |
| CC(=O)O[C@H]1C(=O)[C@@]2(C)[C@H]([C@H](OC(=O)c3ccccc3)[C@]3(O)C[C@H](OC(=O)[C@H](O)[C@@H](NC(=O)c4ccccc4)c4ccccc4)C(C)=C1C3(C)C)[C@]1(OC(C)=O)CO[C@@H]1C[C@@H]2O [紫杉醇, 5β,20-环氧-1,2α,4,7β,10β,13α-六羟基紫杉烷-11-烯-9-酮-4,10-二乙酸酯-2-苯甲酸酯-13[(2’R,3’S)-N-苯甲酰-3-苯基异丝氨酸酯]] | – | – | 溶解 | 几乎不溶 | 低 |
